Data as given in paper PMC4809600, “The Influence of Chronic Wound Extracts on Inflammatory Cytokine and Histatin Stability” (PLoS ONE, 2016).
Where no end group is shown, it is not given here.

Assays:
[1] = Stability in chronic wound extracts (CWE), capillary zone electrophoresis; assay type: in vitro ADME, human; settings: 37°C, CZE; for Percentage intact, CWE 2h / Percentage intact, CWE 4h / Percentage intact, CWE 8h / Percentage intact, CWE 16h / Percentage intact, CWE 24h / Percentage intact, CWE 48h / Percentage intact, CWE 72h / Percentage intact, CWE 96h: 1 mg/ml in PBS mixed 1:1 with CWE (1 mg/ml protein, pool of 5 donors) in PBS, UV 200 nm, ratio to imidazole
Description: (§1) Debridement tissue was obtained from chronic ulcers of 15 patients with therapy resistant (arterio-venous) leg ulcers, according to procedures described earlier. In brief, moist, easily removable debridement material, essentially blood free, was collected from the ulcer surface and divided equally into two different solutions: (i) PBS (B. Braun, Melsungen, Germany), (ii) PBS with protease inhibitor cocktail (PIC) (1:100; v/v) (Sigma-Aldrich, Steinheim, Germany). The mixtures were gently shaken for 1 h at 4°C to elute proteins and centrifuged; the supernatants were stored at -80°C. Total protein content of the supernatant was measured using the BioRad Protein Assay (BioRad Laboratories, Hercules, California, USA) essentially as described by the supplier. Samples were diluted to 1 mg/ml protein and extracts of five different donors were pooled; three different pools of five donors were used in all experiments. The samples are referred to as chronic wound extracts (CWE).
(§2) To determine the stability of the different peptides in CWE, histatins and cytokines were dissolved in PBS at 1 mg/ml. Histatins and cytokines were incubated in a 1:1 ratio with (i) PBS, (ii) CWE in PBS, or (iii) CWE in PBS containing PIC, in a total volume of 25 μl. Imidazole (Sigma-Aldrich) was added as an internal standard, with a final concentration of 100 μg/ml. The mixtures were incubated at 37°C, and samples were taken at 0, 24, 48, 72 and 96 h. For histatins containing mixtures, additional samples were taken after 2, 4, 8 and 16 h of incubation.
(§3) The samples were analyzed with a BioFocus 2000 capillary zone electrophoresis system (Bio-Rad Laboratories, Hercules, CA, USA) equipped with an uncoated fused-silica capillary of internal diameter 50 μm and a length of 24 cm. Samples were loaded by pressure injection (5 psi/sec). Separation was performed at 10 kV (cathode at the detector side) at 20°C using 0.1 M phosphate buffer (pH 2.5) as electrolyte and monitored continuously at 200 nm. Peaks were quantified with the BioFocus Integrator software. In order to quantify the percentage of intact peptides remaining after incubation with CWE, the ratios of histatins, rhIL-6 or rhCXCL8 to internal standard was set at 100% at 0h, and the ratios at the other incubation time points were related to this.

[2] = Stability in CWE with protease inhibitor cocktail (PIC), capillary zone electrophoresis; assay type: in vitro ADME, human; settings: 37°C, CZE, 0 h = 100%; for Percentage intact, CWE + PIC 2h / Percentage intact, CWE + PIC 4h / Percentage intact, CWE + PIC 8h / Percentage intact, CWE + PIC 16h / Percentage intact, CWE + PIC 24h / Percentage intact, CWE + PIC 48h / Percentage intact, CWE + PIC 72h / Percentage intact, CWE + PIC 96h: 1 mg/ml in PBS mixed 1:1 with CWE (1 mg/ml protein, pool of 5 donors) in PBS containing PIC (final 1:140 v/v), ratio to imidazole
Description: as §1, §2, §3

In the case of SHREFPFYGDYGS [mad-Hst1], the “Percentage intact, CWE 2h” value ([1]; 0 h = 100%, experiment 1 of 3) is reported as 91.7%, the “Percentage intact, CWE 2h” value ([1]; 0 h = 100%, experiment 2 of 3) is reported as 99.5769% and the “Percentage intact, CWE 2h” value ([1]; 0 h = 100%, experiment 3 of 3) is reported as 98.2054%. The “Percentage intact, CWE 4h” value ([1]; 0 h = 100%, experiment 1 of 3) was 84.5%, the “Percentage intact, CWE 4h” value ([1]; 0 h = 100%, experiment 2 of 3) was 100.271% and the “Percentage intact, CWE 4h” value ([1]; 0 h = 100%, experiment 3 of 3) was 91.5097%. The “Percentage intact, CWE 8h” value ([1]; 8 h, 0 h = 100%, experiment 1 of 3) was 75.7%, the “Percentage intact, CWE 8h” value ([1]; 8 h, 0 h = 100%, experiment 2 of 3) was 86.2011% and the “Percentage intact, CWE 8h” value ([1]; 8 h, 0 h = 100%, experiment 3 of 3) was 78.6965%. For the same sequence, the “Percentage intact, CWE 16h” value ([1]; 0 h = 100%, experiment 1 of 3) was 69.2%, the “Percentage intact, CWE 16h” value ([1]; 0 h = 100%, experiment 2 of 3) was 65.943% and the “Percentage intact, CWE 16h” value ([1]; 0 h = 100%, experiment 3 of 3) was 57.6063%. For the same sequence, the “Percentage intact, CWE 24h” value ([1]; 24 h, 0 h = 100%, experiment 1 of 3) was 42.5808%, the “Percentage intact, CWE 24h” value ([1]; 24 h, 0 h = 100%, experiment 2 of 3) was 50.836% and the “Percentage intact, CWE 24h” value ([1]; 24 h, 0 h = 100%, experiment 3 of 3) was 32.6705%. For the same sequence, the “Percentage intact, CWE 48h” value ([1]; 0 h = 100%, experiment 1 of 3) was 12.2019%, the “Percentage intact, CWE 48h” value ([1]; 0 h = 100%, experiment 2 of 3) was 19.3697% and the “Percentage intact, CWE 48h” value ([1]; 0 h = 100%, experiment 3 of 3) was 24.0021%. For the same sequence, the “Percentage intact, CWE 72h” value ([1]; 0 h = 100%, experiment 1 of 3) was 1.49%, the “Percentage intact, CWE 72h” value ([1]; 0 h = 100%, experiment 2 of 3) was 2.89% and the “Percentage intact, CWE 72h” value ([1]; 0 h = 100%, experiment 3 of 3) was 2.789%. For the same sequence, the “Percentage intact, CWE 96h” value ([1]; 0 h = 100%, experiment 1 of 3) was 0.001%, the “Percentage intact, CWE 96h” value ([1]; 0 h = 100%, experiment 2 of 3) was 0.001% and the “Percentage intact, CWE 96h” value ([1]; 0 h = 100%, experiment 3 of 3) was 1.322%. It also gave a remaining at 8 h, 0.5 mg/ml ([1]; human, chronic wound extracts (CWE), 1 mg/ml in PBS mixed 1:1 with CWE (1 mg/ml protein, pools of 5 donors), 8 h, 0 h = 100%, mean of 3 independent experiments, read-out: Original amount of peptide remaining intact after 8 h in CWE) of 80%, a remaining at 24 h, 0.5 mg/ml ([1]; human, chronic wound extracts (CWE), 1 mg/ml in PBS mixed 1:1 with CWE (1 mg/ml protein, pools of 5 donors), 24 h, 0 h = 100%, mean of 3 independent experiments, read-out: Original amount of peptide remaining intact after 24 h in CWE) of 42% and a metabolised at 8 h, 0.5 mg/ml ([1]; human, chronic wound extracts (CWE), incubation with chronic wound extracts, 8 h, read-out: Breakdown (degradation) in CWE in 8 h) of about 20%. For the same sequence, the “Percentage intact, CWE + PIC 2h” value ([2]; experiment 1 of 3) was 100%, the “Percentage intact, CWE + PIC 2h” value ([2]; experiment 2 of 3) was 98.3314% and the “Percentage intact, CWE + PIC 2h” value ([2]; experiment 3 of 3) was 98.9861%. For the same sequence, the “Percentage intact, CWE + PIC 4h” value ([2]; experiment 1 of 3) was 97.1353%, the “Percentage intact, CWE + PIC 4h” value ([2]; experiment 2 of 3) was 95.8953% and the “Percentage intact, CWE + PIC 4h” value ([2]; experiment 3 of 3) was 98.3062%. For the same sequence, the “Percentage intact, CWE + PIC 8h” value ([2]; experiment 1 of 3) was 96.5658%, the “Percentage intact, CWE + PIC 8h” value ([2]; experiment 2 of 3) was 92.2482% and the “Percentage intact, CWE + PIC 8h” value ([2]; experiment 3 of 3) was 95.5781%. The “Percentage intact, CWE + PIC 16h” value ([2]; experiment 1 of 3) was 90.0803%, the “Percentage intact, CWE + PIC 16h” value ([2]; experiment 2 of 3) was 88.9151% and the “Percentage intact, CWE + PIC 16h” value ([2]; experiment 3 of 3) was 87.9983%. For the same sequence, the “Percentage intact, CWE + PIC 24h” value ([2]; 24 h, experiment 1 of 3) was 92.5228%, the “Percentage intact, CWE + PIC 24h” value ([2]; 24 h, experiment 2 of 3) was 84.6363% and the “Percentage intact, CWE + PIC 24h” value ([2]; 24 h, experiment 3 of 3) was 83.1367%. For the same sequence, the “Percentage intact, CWE + PIC 48h” value ([2]; experiment 1 of 3) was 76.9205%, the “Percentage intact, CWE + PIC 48h” value ([2]; experiment 2 of 3) was 78.1025% and the “Percentage intact, CWE + PIC 48h” value ([2]; experiment 3 of 3) was 83.127%. The “Percentage intact, CWE + PIC 72h” value ([2]; experiment 1 of 3) was 74.0975%, the “Percentage intact, CWE + PIC 72h” value ([2]; experiment 2 of 3) was 73.8197% and the “Percentage intact, CWE + PIC 72h” value ([2]; experiment 3 of 3) was 80.0857%. For the same sequence, the “Percentage intact, CWE + PIC 96h” value ([2]; experiment 1 of 3) was 76.9035%, the “Percentage intact, CWE + PIC 96h” value ([2]; experiment 2 of 3) was 71.7331% and the “Percentage intact, CWE + PIC 96h” value ([2]; experiment 3 of 3) was 77.8206%. For the same sequence, the remaining at 24 h, 0.5 mg/ml ([2]; human, with protease inhibitor cocktail (PIC), CWE with protease inhibitor cocktail (final 1:140 v/v), 24 h, mean of 3 independent experiments, read-out: Remaining fraction of intact peptide after 24 h in CWE + PIC) was 87%.
